The test system of the series is SMN2 mRNA. The series is described as follows: RT-qPCR of SMN2FL and SMN2 Δ7 mRNA in GM03813 cells. It counts as cell-based, human. The conditions noted are these: GM03813, 72 h, alone or in combination at 10 nM, RT-qPCR (Example 10, FIG. 12A). From the text:
“GM03813 cells” refers to fibroblast cells provided by Coriell Institute for Medical Research. This cell line is described as SPINAL MUSCULAR ATROPHY, TYPE II; SMA2 SURVIVAL OF MOTOR NEURON 1, TELOMERIC; SMN1. The relevant gene is SMN1; the chromosomal location is 5q12.2-q13.3, the allelic variant is described as 1 exons 7 and 8 deleted, SPINAL MUSCULAR ATROPHY, TYPE I; and the identified mutation: is EX7-8DEL.
Seventy-two hours later, total cellular RNA was isolated from the treated cells and reverse transcribed into cDNA. SMN2 mRNA expression was assessed with RT-qPCR using primer pairs specific for SMN2FL or SMN2 Δ7. SMN2 mRNA expression was also assessed by semi-quantitative RT-PCR using a primer pair that amplifies both SMN2FL and SMN2 Δ7 followed by DdeI digestion (PCR/digestion). […] After digestion, both bands were reduced by 115 bp, resulting in two products: 392 bp (SMN2FL) and 338 bp (SMN2 Δ7) as shown on the gel of FIG. 3D. FIG. 3A-3D show dose-dependent changes in SMN2FL and SMNΔ7 mRNA as assessed by RT-qPCR and PCR/digestion respectively. FIG. 3E-3G are graphic plots of data from quantitating the intensity of bands in FIG. 3D.
SMA patient derived fibroblasts were obtained from Coriell Institute (Camden, N.J., USA), including GM00232 (SMA type I with 2 copies of SMN2 gene) and GM03813 (SMA type II with 3 copies of SMN2 gene). These cells were cultured at 5% C02 and 37° C. in modified MEM medium (Gibco, Thermo Fisher Scientific, Carlsbad, Calif.) supplemented with 15% bovine calf serum (Sigma-Aldrich), 1% NEAA (Gibco) and 1% penicillin/streptomycin (Gibco). To transfect oligonucleotides including saRNAs, siRNA and ASO, cells were seeded into 6-well plates at a density of 1×10^5 cells/well and were transfected with oligonucleotides at different concentrations using RNAiMax (Invitrogen, Carlsbad, Calif.) according to the reverse transfection protocol provided by the manufacturer for 72 hours (unless otherwise specified). For Risdiplam treatment of cells, Risdiplam (HY-109101, MedChem Express Company, Monmouth Junction, N.J., USA) dissolved in DMSO was added directly to cells at desired concentration for 72 hours unless specified otherwise.
For RNA isolation from cultured cells, total cellular RNA was isolated from treated cells using an RNeasy Plus Mini kit (Qiagen, Hilden, Germany) according to its manual. To isolated RNA from animal tissues, tissues were harvested and stored at RNA later (AM7021, Thermo Fisher). Total RNA was then isolated using MagPure Total RNA Micro LQ kit (Magen, R6621, China) by auto-pure96 machine (ALLSHENG, China). The resultant RNA (1 μg) was reverse transcribed into cDNA by using a PrimeScript RT kit containing gDNA Eraser (Takara, Shlga, Japan). The resultant cDNA was amplified in an ABI 7500 Fast Real-time PCR System (Applied Biosystems; Foster City, Calif.) using SYBR Premix Ex Taq 11 (Takara, Shlga, Japan) reagents and primers which specifically amplified full-length (SMN2FL) or A7 SMN2 mRNA (SMN2 Δ7) (FIG. 1). The reaction conditions were: 95° C. for 3 seconds (1 cycle) and 60° C. for 30 seconds (40 cycles). Amplification of TBP gene served as an internal control.

With “DS06-0031: saRNA targeting SMN2 promoter at -1266; SEQ ID NO: 478/479 (chain 1 UUGUACACUUGGUCAACAUTT; chain 2 AUGUUGACCAAGUGUACAATT; chemistry not given here)”, the “SMN2FL mRNA fold change” value turned out to be 0.9 fold and the “SMN2 Δ7 mRNA fold change” value was found to be 1.9 fold.

With “DS06-0067: saRNA targeting SMN2 promoter at -293; SEQ ID NO: 480/481 (chain 1 CACUGGAGUUCGAGACGAGTT; chain 2 CUCGUCUCGAACUCCAGUGTT; chemistry not given here)”, the “SMN2FL mRNA fold change” value is listed as 1.3 fold and the “SMN2 Δ7 mRNA fold change” value was 2.4 fold.
